# Measurements reported in patent US10604512B2, “3-(1H-indol-2-yl)-1H-indazoles and therapeutic uses thereof” (Samumed, LLC, priority 2015, dated 2020).
# Tests used:
# [1] = tested on: Primary human fibroblasts derived from IPF patients (LL29 cells) treated with TGF-β1; experiment: Inhibition of the fibrotic process: αSMA staining in TGF-β1-treated primary human fibroblasts from IPF patients (LL29 cells); type: cell-based; conditions: Fibroblast, 96 h; for EC50: % αSMA-positive LL29 cells, TGF-β1 20 ng/mL, 4 days
# Method in brief: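 LL29 IPF-patient fibroblasts in 1% FBS stimulated with TGF-β1 (20 ng/mL) and compound (10 μM–1.87 nM, 0.1% DMSO) for 4 days at 37 °C. SYTOX-positive cells excluded; % αSMA-positive cells imaged, normalized to TGF-β1/DMSO wells; EC50 by nonlinear regression, else % inhibition at 10 μM.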
# [2] = tested on: primary human mesenchymal stem cells (hMSCs); experiment: Induction of chondrogenesis in primary human mesenchymal stem cells (nodule imaging, Rhodamine B / Nile Red); type: cell-based; conditions: for EC50: concentration required to induce 50% levels of chondrogenesis vs TGF-β3 positive control, read-out: Conc (nM) of 50% TGF-β3 activity; for Emax: maximum chondrogenesis activity relative to TGF-β3 (10 ng/mL) positive control, read-out: Max. Activity as % TGF-β3 activity
# Method in brief: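 hMSCs (passage 3–6) in incomplete chondrogenic induction medium dosed at 2700–10 nM (96-well) or 5000–2.2 nM (384-well), 0.03% DMSO, for 6 days at 37 °C. Fixed cells stained with Rhodamine B/Nile Red and nodule area imaged, normalized to DMSO wells (fold change). EC50 set against TGF-β3 (10 ng/mL); maximum activity and its dose also reported.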
SMILES,EC50 [2],EC50 [1],Emax [2],"inhibition at 10 µM ([1]; at 10 μM, given where EC50 >10 μM, αSMA, LL29 cells, TGF-β1, 4 days, read-out: percent inhibition at 10 μM)"
"Nc1cncc(-c2ccc3[nH]nc(-c4cc5c(-c6ccccn6)cccc5[nH]4)c3c2)c1 [Compound 143, 5-(3-(4-(Pyridin-2-yl)-1H-indol-2-yl)-1H-indazol-5-yl)pyridin-3-amine]",10 nM,82 nM,224%,–
"c1cncc(-c2ccc3[nH]nc(-c4cc5c(-c6cccnc6)cccc5[nH]4)c3c2)c1 [Compound 88, 5-(Pyridin-3-yl)-3-(4-(pyridin-3-yl)-1H-indol-2-yl)-1H-indazole]",10 nM,> 10000 nM,183%,17.3%

# More lines, in order of falling EC50 [2], values ahead:
EC50 [2],SMILES,EC50 [1],Emax [2],"inhibition at 10 µM ([1]; at 10 μM, given where EC50 >10 μM, αSMA, LL29 cells, TGF-β1, 4 days, read-out: percent inhibition at 10 μM)"
10 nM,"c1ccc2[nH]c(-c3n[nH]c4ccc(-c5cncc(OCCN6CCCC6)c5)cc34)cc2c1 [Compound 686, 3-(1H-Indol-2-yl)-5-(5-(2-(pyrrolidin-1-yl)ethoxy)pyridin-3-yl)-1H-indazole]",7390 nM,213%,–
10 nM,"c1cncc(-c2ccc3[nH]nc(-c4cc5ccccc5[nH]4)c3c2)c1 [Compound 256, 3-(1H-Indol-2-yl)-5-(pyridin-3-yl)-1H-indazole]",9770 nM,162%,–
10 nM,"Nc1cncc(-c2ccc3[nH]nc(-c4cc5c(-c6ccccc6F)cccc5[nH]4)c3c2)c1 [Compound 59, 5-(3-(4-(2-Fluorophenyl)-1H-indol-2-yl)-1H-indazol-5-yl)pyridin-3-amine]",603 nM,197%,–
10 nM,"O=C(Nc1cncc(-c2ccc3[nH]nc(-c4cc5c(-c6ccncc6)cccc5[nH]4)c3c2)c1)C1CC1 [Compound 132, N-(5-(3-(4-(Pyridin-4-yl)-1H-indol-2-yl)-1H-indazol-5-yl)pyridin-3-yl) cyclopropanecarboxamide]",76 nM,219%,–
